Measurements published in ChEMBL document CHEMBL3734705, “Synthesis and in vitro cytotoxicity of novel C-12 substituted-14-deoxy-andrographolide derivatives as potent anti-cancer agents” (2015).

Legend:
[1] = test system: U-251; experiment: Cytotoxicity against human U251 cells after 48 hrs by SRB assay; assay type: functional; conditions: U-251, 48 h
[2] = test system: NCI-H460; experiment: Cytotoxicity against human NCI-H460 cells after 48 hrs by SRB assay; assay type: functional; conditions: NCI-H460, 48 h; for CC50: read-out: LC50 (the source's name)
[3] = test system: KM12; experiment: Cytotoxicity against human KM12 cells after 48 hrs by SRB assay; assay type: functional; conditions: KM12, 48 h
[4] = test system: MDA-MB-231; experiment: Cytotoxicity against human MDA-MB-231 cells after 48 hrs by SRB assay; assay type: functional; conditions: MDA-MB-231, 48 h
[5] = Cytotoxicity against human NCI-ADR-RES cells assessed as growth level at 10 uM after 48 hrs by SRB assay; assay type: functional
[6] = Cytotoxicity against human RPMI8226 cells assessed as growth level at 10 uM after 48 hrs by SRB assay; assay type: functional, RPMI-8226
[7] = test system: A498; experiment: Cytotoxicity against human A498 cells assessed as growth level at 10 uM after 48 hrs by SRB assay; assay type: functional
[8] = test system: K562; experiment: Cytotoxicity against human K562 cells assessed as growth level at 10 uM after 48 hrs by SRB assay; assay type: functional
[9] = Cytotoxicity against human SF295 cells after 48 hrs by SRB assay; assay type: functional; conditions: SF-295, 48 h
[10] = Cytotoxicity against human RXF393 cells assessed as growth inhibition at 10 uM after 48 hrs by SRB assay; assay type: functional; conditions: RXF 393, 48 h, read-out: GI
[11] = test system: K562; experiment: Cytotoxicity against human K562 cells after 48 hrs by SRB assay; assay type: functional; conditions: K562, 48 h
[12] = test system: NCI-H23; experiment: Cytotoxicity against human NCI-H23 cells assessed as growth inhibition at 10 uM after 48 hrs by SRB assay; assay type: functional; conditions: NCI-H23, 48 h, read-out: GI
[13] = Cytotoxicity against human MOLT4 cells after 48 hrs by SRB assay; assay type: functional; conditions: MOLT-4, 48 h
[14] = Cytotoxicity against human PC3 cells after 48 hrs by SRB assay; assay type: functional; conditions: PC-3, 48 h
[15] = test system: M14; experiment: Cytotoxicity against human M14 cells assessed as growth inhibition at 10 uM after 48 hrs by SRB assay; assay type: functional; conditions: M14, 48 h, read-out: GI
[16] = Cytotoxicity against human UACC257 cells assessed as growth level at 10 uM after 48 hrs by SRB assay; assay type: functional, UACC-257
[17] = test system: T47D; experiment: Cytotoxicity against human T47D cells assessed as growth inhibition at 10 uM after 48 hrs by SRB assay; assay type: functional; conditions: read-out: GI
[18] = test system: HT-29; experiment: Cytotoxicity against human HT-29 cells assessed as growth inhibition at 10 uM after 48 hrs by SRB assay; assay type: functional; conditions: HT-29, 48 h, read-out: GI
[19] = Cytotoxicity against human HL-60(TB) cells after 48 hrs by SRB assay; assay type: functional; conditions: HL-60, 48 h; for CC50: read-out: LC50 (the source's name)
[20] = Cytotoxicity against human SW620 cells assessed as growth level at 10 uM after 48 hrs by SRB assay; assay type: functional, SW-620
[21] = Cytotoxicity against human SF268 cells assessed as growth level at 10 uM after 48 hrs by SRB assay; assay type: functional, SF-268
[22] = Cytotoxicity against human IGROV1 cells after 48 hrs by SRB assay; assay type: functional; conditions: IGROV-1, 48 h; for CC50: read-out: LC50 (the source's name)
[23] = Cytotoxicity against human BT549 cells assessed as growth inhibition at 10 uM after 48 hrs by SRB assay; assay type: functional; conditions: BT-549, 48 h, read-out: GI
[24] = Cytotoxicity against human HL-60(TB) cells assessed as growth inhibition at 10 uM after 48 hrs by SRB assay; assay type: functional; conditions: HL-60, 48 h, read-out: GI
[25] = Cytotoxicity against human SNB19 cells assessed as growth level at 10 uM after 48 hrs by SRB assay; assay type: functional, SNB-19
[26] = test system: MCF7; experiment: Cytotoxicity against human MCF7 cells after 48 hrs by SRB assay; assay type: functional; conditions: MCF7, 48 h
[27] = Cytotoxicity against human LOXIMVI cells assessed as growth inhibition at 10 uM after 48 hrs by SRB assay; assay type: functional; conditions: LOX IMVI, read-out: GI
[28] = Cytotoxicity against human MOLT4 cells assessed as growth inhibition at 10 uM after 48 hrs by SRB assay; assay type: functional; conditions: MOLT-4, 48 h, read-out: GI
[29] = test system: Malme-3M; experiment: Cytotoxicity against human MALME-3M cells assessed as growth inhibition at 10 uM after 48 hrs by SRB assay; assay type: functional; conditions: read-out: GI
[30] = Cytotoxicity against human OVCAR8 cells assessed as growth level at 10 uM after 48 hrs by SRB assay; assay type: functional, OVCAR-8
[31] = test system: MDA-MB-231; experiment: Cytotoxicity against human MDA-MB-231 cells assessed as growth inhibition at 10 uM after 48 hrs by SRB assay; assay type: functional; conditions: MDA-MB-231, 48 h, read-out: GI
[32] = Cytotoxicity against human UACC62 cells assessed as growth inhibition at 10 uM after 48 hrs by SRB assay; assay type: functional; conditions: UACC-62, 48 h, read-out: GI
[33] = test system: CCRF-CEM; experiment: Cytotoxicity against human CCRF-CEM cells after 48 hrs by SRB assay; assay type: functional; conditions: for CC50: read-out: LC50 (the source's name)
[34] = Cytotoxicity against human UO31 cells assessed as growth inhibition at 10 uM after 48 hrs by SRB assay; assay type: functional; conditions: UO-31, 48 h, read-out: GI
[35] = Cytotoxicity against human HCT116 cells assessed as growth inhibition at 10 uM after 48 hrs by SRB assay; assay type: functional; conditions: HCT-116, 48 h, read-out: GI
[36] = Cytotoxicity against human HOP62 cells assessed as growth level at 10 uM after 48 hrs by SRB assay; assay type: functional, HOP-62
[37] = Cytotoxicity against human TK10 cells assessed as growth inhibition at 10 uM after 48 hrs by SRB assay; assay type: functional; conditions: TK-10, 48 h, read-out: GI
[38] = test system: SK-MEL-5; experiment: Cytotoxicity against human SK-MEL-5 cells assessed as growth level at 10 uM after 48 hrs by SRB assay; assay type: functional
[39] = Cytotoxicity against human PC3 cells assessed as growth inhibition at 10 uM after 48 hrs by SRB assay; assay type: functional; conditions: PC-3, 48 h, read-out: GI

C=C1CC[C@@H]2[C@](C)(COC(C)=O)[C@H](OC(C)=O)CC[C@@]2(C)[C@@H]1C/C=C1/C(=O)OC[C@H]1OC(C)=O showed a GI50 [1] of 6.09 µM, an LC50 (concentration giving 50% net cell kill) [1] of 48.6 µM and a TGI [1] of 19.3 µM. The GI50 [2] was 18.6 µM, the TGI [2] was 37.7 µM and the CC50 [2] was 76.2 µM. The GI50 [3] was 10.5 µM, the LC50 [3] was 73.4 µM and the TGI [3] was 27.7 µM. For the same compound, the GI50 [4] was 12.5 µM, the LC50 [4] was 58.7 µM and the TGI [4] was 27.1 µM. It also gave an Activity [5] of 24.99%, an Activity [6] of 14.12% and an Activity [7] of 90.57%. The Activity [8] was 11.07%, the GI50 [9] was 13.3 µM and the LC50 [9] was 54.2 µM. It also gave a TGI [9] of 26.8 µM, an inhibition of growth at 10 µM [10] of 7.35% and a GI50 [11] of 2.63 µM. For the same compound, the LC50 (50% lethal concentration) [11] was over 100 µM, the TGI [11] was 32.1 µM and the inhibition of growth at 10 µM [12] was 19.1%. The GI50 [13] was 3.8 µM, the LC50 [13] was over 100 µM and the TGI [13] was 16.1 µM. The GI50 [14] was 6.07 µM, the LC50 [14] was 48.9 µM and the TGI [14] was 19.9 µM. The inhibition of growth at 10 µM [15] was 64.6%, the Activity [16] was 66.52% and the inhibition of growth at 10 µM [17] was 57.2%. It also gave an inhibition of growth at 10 µM [18] of 39.4%, a GI50 [19] of 2.61 µM and a TGI [19] of 6.78 µM. It also gave a CC50 [19] of 78.5 µM, an Activity [20] of -21.85% and an Activity [21] of 87.06%. It also gave a GI50 [22] of 2.41 µM, a TGI [22] of 6.23 µM and a CC50 [22] of 32 µM. It also gave an inhibition of growth at 10 µM [23] of 72.6%, an inhibition of growth at 10 µM [24] of 20.9% and an Activity [25] of 82.96%. For the same compound, the GI50 [26] was 1.83 µM, the LC50 (50% lethal concentration) [26] was over 100 µM and the TGI [26] was 6.79 µM. It also gave an inhibition of growth at 10 µM [27] of 74.4%, an inhibition of growth at 10 µM [28] of 6.05% and an inhibition of growth at 10 µM [29] of 22.3%. The Activity [30] was 27.13%, the inhibition of growth at 10 µM [31] was 4.16% and the inhibition of growth at 10 µM [32] was 70.3%. For the same compound, the GI50 [33] was 1.12 µM, the TGI [33] was 5.32 µM and the CC50 [33] was over 100 µM. The inhibition of growth at 10 µM [34] was 37.2%, the inhibition of growth at 10 µM [35] was 37.3% and the Activity [36] was 75.75%. It also gave an inhibition of growth at 10 µM [37] of 83.1%, an Activity [38] of 56.18% and an inhibition of growth at 10 µM [39] of 11.5%.
For C=C1CC[C@@H]2[C@](C)(COC(C)=O)[C@H](OC(C)=O)CC[C@@]2(C)[C@@H]1CC(Nc1ccc(S(=O)(=O)NC(C)=O)cc1)C1=CCOC1=O (mixture of isomers), the GI50 [1] was 3.49 µM, the LC50 (concentration giving 50% net cell kill) [1] was 30.8 µM and the TGI [1] was 12 µM. The GI50 [2] was 6.72 µM, the TGI [2] was 17.9 µM and the CC50 [2] was 44.7 µM. For the same compound, the GI50 [3] was 5.11 µM, the LC50 [3] was 40.5 µM and the TGI [3] was 15.9 µM. For the same compound, the GI50 [4] was 3.32 µM, the LC50 [4] was 35.1 µM and the TGI [4] was 11.6 µM. For the same compound, the Activity [5] was 11.87%, the Activity [6] was -16.18% and the Activity [7] was 73.42%. It also gave an Activity [8] of 4.81%, a GI50 [9] of 11.5 µM and an LC50 [9] of 42.2 µM. For the same compound, the TGI [9] was 22 µM, the GI50 [11] was 2.58 µM and the LC50 (50% lethal concentration) [11] was over 75 µM. The TGI [11] was 17.6 µM, the GI50 [13] was 2.2 µM and the LC50 [13] was over 75 µM. It also gave a TGI [13] of 6.66 µM, a GI50 [14] of 6.56 µM and an LC50 [14] of 40 µM. The TGI [14] was 16.8 µM, the Activity [16] was -10.57% and the GI50 [19] was 2.45 µM. It also gave a TGI [19] of 12 µM, a CC50 [19] of over 75 µM and an Activity [20] of -65.65%. The Activity [21] was 6.72%, the GI50 [22] was 5.31 µM and the TGI [22] was 15.4 µM. The CC50 [22] was 37.1 µM, the Activity [25] was 23.04% and the GI50 [26] was 1.92 µM. For the same compound, the LC50 (50% lethal concentration) [26] was over 75 µM, the TGI [26] was 11.3 µM and the Activity [30] was -18.21%. The GI50 [33] was 1.93 µM, the TGI [33] was 6.26 µM and the CC50 [33] was over 75 µM. It also gave an Activity [36] of 81.97% and an Activity [38] of 7.36%.
